This is an account of results in the SangsterLogP compilation.

Assay in the first data set: not given
The conditions noted are these: pH 3.5.
For `COc1cccc(NC(=S)c2ccc(O)cc2O)c1`, the logD (as a rule, lipophilicity at a set pH, counting ionised and neutral species) came to 3.54.

Another data set can be described thus: method code SF-AS, from DOI: 10.1002/qsar.200430865. The conditions noted are these: pH 3.5.
`COC(=O)c1ccccc1NC(=S)c1ccc(O)cc1O` displayed a log distribution coefficient (logD) of 2.92.

For `CCOc1ccccc1NC(=S)c1ccc(O)cc1O`, the log distribution coefficient (logD) was 3.8.

In turn, `Oc1ccc(C(=S)Nc2ccc(Cl)cc2Cl)c(O)c1` returned a pH-dependent lipophilicity (logD) of 4.26.

In the case of `N#Cc1ccc(NC(=S)c2ccc(O)cc2O)cc1`, the logD was found to be 2.41.

For the compound `Oc1ccc(C(=S)Nc2ccc(F)cc2F)c(O)c1`, the logD is 3.54.

With `Oc1ccc(C(=S)Nc2ccc(Cl)c(F)c2)c(O)c1`, the logD was determined as 4.43.

With `Oc1ccc(C(=S)Nc2cccc(F)c2)c(O)c1`, the logD was found to be 3.41.

`Oc1ccc(C(=S)Nc2cc(Cl)c(Cl)cc2Cl)c(O)c1` showed a logD of 4.92.

For `Oc1ccc(C(=S)Nc2cccc(C(F)(F)F)c2)c(O)c1`, the log distribution coefficient (logD) was 4.26.

Regarding `Oc1ccc(C(=S)Nc2ccccc2F)c(O)c1`, the logD was determined as 3.36.

Regarding `CC(=O)c1cccc(NC(=S)c2ccc(O)cc2O)c1`, the logD was found to be 2.36.

`Oc1ccc(C(=S)Nc2ccc(Br)cc2)c(O)c1` came in with a logD of 4.02.

`CCOc1ccc(NC(=S)c2ccc(O)cc2O)cc1` came in with a pH-dependent lipophilicity (logD) of 3.49.

The compound `Oc1ccc(C(=S)Nc2cccc(Br)c2)c(O)c1` registered a logD of 3.46.

With `Oc1ccc(C(=S)Nc2cc(Cl)ccc2O)c(O)c1`, the log distribution coefficient (logD) came out at 3.58.

`Oc1ccc(C(=S)Nc2cccc(Cl)c2)c(O)c1` displayed a logD of 3.9.

`Oc1ccc(C(=S)Nc2cccc(Cl)c2Cl)c(O)c1` displayed a pH-dependent lipophilicity (logD) of 4.02.
